Experimental data published in patent US4873250A, “Antimicrobial compound and compositions particulary effective against candida albicans” (The University of Mississippi, priority 1988, dated 1989).
Converted amounts (≈) assume the structure as drawn.

What was measured:
[1] = under varying conditions; cited from earlier work
Candida albicans [2] = conditions: reported in Journal of Natural Products, Vol. 50, No. 5, pp. 961-964, 1987; cited from earlier work
Candida albicans [3] = test: Anticandidal activity, agar-well diffusion assay (zone of inhibition); type: cell-based; conditions: three test strains of Candida albicans; pure compounds at 1 mg/ml; 37° for 24 hours
Protocol: In vitro evaluation of the anticandidal activity of the inventive compound and compositions was carried out using the agar-well diffusion assay as follows:
Candida albicans NIH B311 used to induce experimental disseminated candidiasis was used for the initial qualitative evaluation of anticandidal activity. The organism was grown in Sabouraud-dextrose broth (SDB) for 14 hours at 37°, at which time the cells were harvested by centrifugation (4°, 2000 rpm, 3 min). After centrifugation, the cells were washed and suspended in sterile 0.9% saline to give a final concentration of 10^6 colony forming units (CFU) per ml (adjusted using a hemocytometer). Culture plates (15×100 mm) for the qualitative assay were prepared from 25 ml of Sabouraud-dextrose agar. Using sterile cotton swabs, the plates were streaked with the suspension (10^6 CFU/ml) of Candida albicans B311. Cylindrical plugs were removed from the agar plates by means of a sterile cork borer to produce wells with a diameter of approximately 11 mm. To the well was added 100 μl of solution or suspension of an extract, fraction, or pure compound. Crude extracts and fractions were tested at a concentration of 20 mg/ml, whereas pure compounds were tested at 1 mg/ml. […] Anticandidal activity was recorded as the width (in mm) of the zone of inhibition following incubation of the plates at 37° for 24 hours. […]

Candida albicans B311 = test: Minimum inhibitory concentration (MIC), twofold serial broth dilution assay, Candida albicans B311; type: cell-based; conditions: yeast nitrogen broth, 24 and 48 hours at 37°
Protocol: (§1) The method used to determine the minimum inhibitory concentration (MIC) of the inventive compound was a twofold serial broth dilution assay in yeast nitrogen broth. In addition to Candida albicans B311, the MIC values for onychine were also determined for two additional strains of Candida albicans: ATCC 10231 and a clinical isolate, designated WH. Also tested were Mycobacterium smegmatis 607, Bacillus subtilis, 6633, Cryptococcus neoformans 32264, Aspergillus flavus 9170, Aspergillus fumigatus 26934, and Trichophyton mentagrophytes 9972. The inventive compound was initally tested using a concentration of 100 μg/ml in the first tube. The compound was added to sterile Sabourauddextrose broth as a solution in DMSO. The inoculum for the MIC determination was prepared as described for qualitative evaluation. Using a calibrated sterile wire loop, 10μl of the 10^6 CFU/ml suspension of Candida albicans was used as inoculum for each tube. The MIC value was taken as the lowest concentration of compound that inhibited the growth of the test organisms after 24 and 48 hours of incubation at 37°. The antifungal agents amphotericin-B and ketoconazole were included as standards in each screen. The results of the MIC testing for various pathogenic agents is set out in Table I.

Candida albicans 10231 = test: Minimum inhibitory concentration (MIC), twofold serial broth dilution assay, Candida albicans ATCC 10231; type: cell-based; conditions: ATCC10231, 24 and 48 hours at 37°
Protocol: as §1

Candida albicans [4] = test: In vivo disseminated Candida albicans infection in mice, CFU recovered from the kidneys; parameters: species or system outbred mice; conditions: for % Reduction: kidney CFU versus vehicle control; for CFU/g × 10^6 (range): kidney
Protocol: In the in vivo testing of the invention onychine, outbred mice were used. A disseminated infection of Candida albicans in the test animals was achieved by intravenous injection of 10^6 CFU of the pathogen. The organism is rapidly cleared from the blood and most tissues, except the kidney which is the primary target organ for the disseminated infection in mice. It is known than an inoculum of 10^6 CFU will produce a disseminated infection in outbred mice within […]. Onychine was administered to infected mice by intraperitoneal injection 7 hrs post-inoculation. The vehicle used for administering the compound of the invention was a mixture consisting of 50% USP water, 40% propylene glycol and 10% absolute ethonol.

Candida albicans WH = test: Minimum inhibitory concentration (MIC), twofold serial broth dilution assay, Candida albicans WH (clinical isolate); type: cell-based; conditions: 24 and 48 hours at 37°
Protocol: as §1

CC1C=CC=CC=CC=CC=CC=CC=CC(OC2OC(C)C(O)C(N)C2O)CC2OC(O)(CC(O)CC(O)C(O)CCC(O)CC(O)CC(=O)OC(C)C(C)C1O)CC(O)C2C(=O)O (centres unmarked) [amphotericin-B]
side effects in humans [1]: fever, anorexia, nausea and vomiting, diarrhea, muscle and joint pain, phlebitis and thiophlebitis, anemia, abnormal renal function, anuria, cardiovascular distress, hypertension and hypotension

c1ccc2c(c1)-c1nccc3ccnc-2c13 [eupolauridine]
anticandidal properties (Candida albicans [2]): possibly remarkable anticandidal properties

Cc1ccnc2c1C(=O)c1ccccc1-2 [Onychine, 1-methyl-4-azafluoren-9-one]
zone of inhibition (Candida albicans [3]): remarkable zone of inhibition | MIC (Candida albicans B311): 3.12 µg/mL (≈ 16 µM) | MIC (Candida albicans 10231): 1.56 µg/mL (≈ 7.99 µM) | number of CFU of Candida albicans recovered from the kidneys versus vehicle treated control mice (Candida albicans [4]; 0.1 mg/kg intraperitoneal 7 hrs post-inoculation): significantly lower | % Reduction (Candida albicans [4]; 0.1 mg/kg intraperitoneal, n=8, P 0.047): 95.5% | % Reduction (Candida albicans [4]; 0.5 mg/kg intraperitoneal, n=7, P 0.082): 86.7% | CFU/g × 10^6 (range) (Candida albicans [4]; 0.1 mg/kg intraperitoneal 7 hrs post-inoculation, n=8, range 0.05-0.3, P 0.047): 0.17 CFU/g × 10^6 | CFU/g × 10^6 (range) (Candida albicans [4]; 0.5 mg/kg intraperitoneal 7 hrs post-inoculation, n=7, range 0.11-1.05, P 0.082): 0.50 CFU/g × 10^6 | MIC (Candida albicans WH): 25 µg/mL (≈ 128 µM)
